Measured values reported in US20170066759A1, “AROMATIC 5-MEMBERED HETEROCYCLIC DERIVATIVE HAVING TRPV4-INHIBITING ACTIVITY” (Shionogi & Co., Ltd., priority 2012, published 2017).

Each molecule was assayed against T1, human TRPV4 (hTRPV4/CHO cells) (Homo sapiens, UniProt Q9HBA0) (assay: Test Example 1: TRPV4 inhibitory activity (IC50 value), 4α-PDD stimulation, Fluo4 calcium fluorescence (FLIPR TETRA)). Details: Test Example 1, 4α-PDD stimulation, read-out: Test 1 IC50.
T1 construct: expressed in transfected cells; host or cells: CHO-K1
T1 sequence (Q9HBA0 whole entry): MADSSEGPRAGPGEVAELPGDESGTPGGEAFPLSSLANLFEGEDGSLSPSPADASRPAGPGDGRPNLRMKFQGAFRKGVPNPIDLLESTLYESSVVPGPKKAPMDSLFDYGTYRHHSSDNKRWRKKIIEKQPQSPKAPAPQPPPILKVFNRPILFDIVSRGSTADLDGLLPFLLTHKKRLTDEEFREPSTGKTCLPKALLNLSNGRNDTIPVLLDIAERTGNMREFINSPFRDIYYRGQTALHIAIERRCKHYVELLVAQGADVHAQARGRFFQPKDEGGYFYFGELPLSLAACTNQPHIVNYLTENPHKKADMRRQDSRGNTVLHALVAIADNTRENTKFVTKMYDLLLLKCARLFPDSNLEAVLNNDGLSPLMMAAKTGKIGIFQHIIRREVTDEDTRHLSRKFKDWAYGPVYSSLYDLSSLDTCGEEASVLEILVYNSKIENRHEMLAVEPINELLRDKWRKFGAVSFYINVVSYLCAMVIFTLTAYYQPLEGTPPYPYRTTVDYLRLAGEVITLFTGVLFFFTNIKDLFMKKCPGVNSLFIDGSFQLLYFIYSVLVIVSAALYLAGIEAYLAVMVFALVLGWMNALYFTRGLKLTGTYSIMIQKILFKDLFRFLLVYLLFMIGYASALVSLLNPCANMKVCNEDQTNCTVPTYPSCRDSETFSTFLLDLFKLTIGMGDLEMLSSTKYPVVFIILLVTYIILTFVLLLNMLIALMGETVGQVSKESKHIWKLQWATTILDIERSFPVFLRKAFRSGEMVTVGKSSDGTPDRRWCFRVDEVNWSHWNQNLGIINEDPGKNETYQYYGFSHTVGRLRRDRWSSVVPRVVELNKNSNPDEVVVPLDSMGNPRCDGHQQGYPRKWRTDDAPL
Format: cell-based

IC50 | SMILES
< 100 nM | Cc1nc(C)c(-c2csc(NC(=O)Cc3ccc(S(=O)(=O)C(F)(F)F)cc3)n2)s1 [Compound I-186]
100 to 1000 nM | Cc1nc(C)c(-c2csc(NC(=O)C3CC3(F)F)n2)s1 (centres unmarked) [Compound I-27]
100 to 1000 nM | Cc1nc(C)c(-c2csc(NC(=O)C3CCCC3)n2)s1 [Compound I-224]
100 to 1000 nM | Cc1nc(C)c(-c2csc(NC(=O)N(C)c3ccc(Br)cc3)n2)s1 [Compound I-59]
< 100 nM | Cc1nc(C)c(-c2csc(NC(=O)C3CCN(c4ccccc4)C3)n2)s1 (centres unmarked) [Compound I-46]
< 100 nM | Cc1nc(C)c(-c2csc(NC(=O)Cc3ccc(CS(=O)(=O)C(F)(F)F)cc3)n2)s1 [Compound I-35]
100 to 1000 nM | Cc1nc(C)c(-c2csc(NC(=O)C3CCCCC3)n2)s1 [Compound I-223]
< 100 nM | Cc1nc(C)c(-c2csc(NC(=O)C(C)c3ccc(Cl)cc3)n2)s1 (centres unmarked) [Compound I-4]
< 100 nM | Cc1nc(CF)sc1-c1csc(NC(=O)Cc2ccc(S(=O)(=O)C(F)(F)F)cc2)n1 [Compound I-31]
< 100 nM | Cc1ncc(-c2csc(NC(=O)Cc3ccc(Br)cc3)n2)s1 [Compound I-14]
1000 to 8000 nM | Cc1nc(C)c(-c2csc(NC(=O)C3CC(=O)N(Cc4ccccc4)C3)n2)s1 (centres unmarked) [Compound I-47]

What follows are molecules tested against T1, human TRPV4 (hTRPV4/CHO cells) (assay: Test Example 4: TRPV4 inhibitory activity (Ki value), 4α-PDD stimulation, Fluo-3 calcium fluorescence (FDSS 3000)). Details: 4α-PDD, Fluo-3, Ki calculated from IC50 and EC50 of 4α-PDD, read-out: TRPV4 inhibitory activity (Ki value).
Format: cell-based
Method: TRPV4 Inhibitory Activity (Ki Value)
For each compound, TRPV4 inhibitory activity was measured using cells.
(Method) The procedures of evaluating TRPV4 inhibitory activity of a compound are as follows.
(1) TRPV4 inhibitory activity was measured using CHO-K1 cells stably expressing human TRPV4 (hTRPV4/CHO cells).
(2) Cells were subcultured using the MEM-α medium (SIGMA M4526: 500 ml), FBS (HyCloneSH30070.03: 10%), L-Glutamine 200 mmol/L (GIBCO: 4 mmol/L), P/S (nacalai tesque: 1%), G418 (nacalai tesque: 1 mg/mL).
(3) The 96-well plates which hTRPV4/CHO cells were seeded at densities of 2×10^4 cells/well in the culture medium in the day before the experimental day, and cultured in a CO2 incubator in the presence of 5% CO2 at 37° C. for 24 hours was used as assay plates.
(4) Cells were washed with assay buffer (Hank's Balanced Salt Solution 9.8 g, 1 mol/L HEPES (pH7.5), 250 mmol/L probenecid).
(5) Fluo-3, fluorescent dye for Ca influx assay was added to each well, then the assay plate was incubated in a CO2 incubator in the presence of 5% CO2 at 37° C. for one hour (final conc.; 5 μmol/L Fluo-3).
(6) The assay plate was washed with the assay buffer, and the buffer was remained at 30 μL/well. Then the assay plate was incubated for 10 min at 37° C.
(7) 20 μL of diluted compound solution was added to each well of assay plate, and mixed with built-in Pipette and Mixer of the fluorescence analysis system FDSS 3000 (Hamamatsu Photonics).
(8) 50 μL of 4α-PDD solution (concluding 0.1% Pluronic F-127) was applied to each well of assay plate and mixed.
(9) The fluorescent intensity was measured by FDSS 3000 for 8 min from the point of time addition the compound solution, at Ex 480 nm, Em 540 nm wavelength.
TRPV4 inhibitory activity (Ki value) of a compound was calculated according to the following procedure.
(10) In the presence of the compound, the difference between maximal and minimal of fluorescent intensity value for 8 min from just before addition of 4α-PDD solution was calculated, and it was referred as Max-Min value. Max-Min value of the Ruthenium Red at 10 μM was defined as 100% inhibitory activity, Max-Min value in the absence of the compound was defined as 0% inhibitory activity. TRPV4 inhibitory activity of the compound was calculated by the following formula.
(1−(Max−Min value of the compound−100% inhibitory activity)/(0% inhibitory activity−100% inhibitory activity))×100
(11) By the following formula, inhibitory activity was calculated at 10 points with three fold serial dilution, in the final concentration of the compound from 10 μmol/L to 0.5 nmol/L. The IC50 value was calculated by dose-response curve.
100−[(fluorescent intensity in the presence of the compound−fluorescent intensity of back ground)/(total fluorescent intensity−fluorescent intensity of back ground)]×100
(12) In the presence of the compound, activity of 4α-PDD was measured at 9 points with three fold serial dilution from 20 μmol/L. Activity of 4α-PDD was calculated by the following formula.
(Max−Min value of the each 4α-PDD concentration−0% activity)/(100% activity−0% activity))×100
(13) Effective activity was calculated in 4α-PDD the above. The EC50 value was calculated by dose-response curve.
(14) The Ki value of a compound was calculated by the following formula.
Ki=IC50 value/1+([A]/EC50)
[A]: Concentration of agonist (nmol/L)

Ki | SMILES
34.4 nM | Cc1nc(C)c(-c2csc(NC(=O)Cc3ccc(C(F)(F)F)c(F)c3)n2)s1 [Compound I-20]

Same assay, conditions: Test Example 4, 4α-PDD stimulation, read-out: Test 4 Ki

Ki | SMILES
< 100 nM | Cc1nc(C)c(-c2csc(NC(=O)Cc3ccc(S(=O)(=O)C(F)(F)F)cc3)n2)s1 [Compound I-186]
100 to 1000 nM | Cc1nc(C)c(-c2csc(NC(=O)CCS(=O)(=O)c3ccccc3)n2)s1 [Compound I-41]
1000 to 3000 nM | Cc1nc(C)c(-c2csc(NC(=O)c3ccccc3)n2)s1 [Compound I-234]
100 to 1000 nM | Cc1nc(C)c(-c2csc(NC(=O)CC(F)(F)F)n2)s1 [Compound I-45]
100 to 1000 nM | Cc1nc(C)c(-c2csc(NC(=O)C(C)Oc3ccc(Cl)cc3)n2)s1 (centres unmarked) [Compound I-12]
100 to 1000 nM | COc1ccc(Nc2nc(-c3sc(C)nc3C)cs2)cc1 [II-29]
< 100 nM | Cc1nc(C)c(-c2csc(NC(=O)[C@H]3CC[C@H](Cl)C3)n2)s1 (racemic) [Compound I-55]
100 to 1000 nM | Cc1nc(C)c(-c2csc(Nc3ccccc3)n2)s1 [II-30]
100 to 1000 nM | Cc1nc(C)c(-c2csc(NC(=O)C(C)(C)c3ccccc3)n2)s1 [Compound I-1]
< 100 nM | Cc1nc(C)c(-c2csc(NC(=O)C3CC3(F)F)n2)s1 (centres unmarked) [Compound I-27]
< 100 nM | Cc1nc(C)c(-c2csc(NC(=O)CC3CCC3)n2)s1 [Compound I-54]
< 100 nM | Cc1nc(C)c(-c2csc(NC(=O)C3CCCC3)n2)s1 [Compound I-224]
100 to 1000 nM | Cc1nc(C)c(-c2csc(NC(=O)N(C)c3ccc(Br)cc3)n2)s1 [Compound I-59]
< 100 nM | CCCCCCCC(=O)Nc1nc(-c2sc(C)nc2C)cs1 [Compound I-221]
< 100 nM | Cc1nc(C)c(-c2csc(NC(=O)C3CCN(c4ccccc4)C3)n2)s1 (centres unmarked) [Compound I-46]
100 to 1000 nM | Cc1nc(C)c(-c2csc(NC(=O)Cc3c[nH]c4ccccc34)n2)s1 [Compound I-44]

Ki | SMILES
< 100 nM | Cc1nc(C)c(-c2csc(NC(=O)Cc3ccc(Cl)c(F)c3)n2)s1 [Compound I-48]
100 to 1000 nM | O=C(Cc1ccc(Br)cc1)Nc1nc(-c2cnc(Cl)s2)cs1 [Compound I-16]
100 to 1000 nM | CC(=O)c1ccc(Nc2nc(-c3sc(C)nc3C)cs2)cc1 [II-25]
100 to 1000 nM | Cc1nc(C)c(-c2csc(NC(=O)CC#N)n2)s1 [Compound I-40]
100 to 1000 nM | Cc1nc(C)c(-c2csc(NC(=O)C3CCC(NCC(F)(F)F)C3)n2)s1 (racemic) [Compound I-39]
100 to 1000 nM | Cc1nc(C)c(-c2csc(NC(=O)C(C)(C)Oc3ccc(Cl)cc3)n2)s1 [Compound I-11]
100 to 1000 nM | Cc1nc(C)c(-c2csc(NC(=O)C(F)c3ccccc3)n2)s1 (centres unmarked) [Compound I-8]
< 100 nM | Cc1nc(C)c(-c2csc(NC(=O)Cc3ccc(CS(=O)(=O)C(F)(F)F)cc3)n2)s1 [Compound I-35]
100 to 1000 nM | Cc1nc(C)c(-c2csc(NC(=O)c3ccc(Cl)cc3)n2)s1 [Compound I-227]
100 to 1000 nM | Cc1nc(C)c(-c2csc(NC(=O)C3CCCCC3)n2)s1 [Compound I-223]
100 to 1000 nM | Cc1nc(C)c(-c2csc(NC(=O)CC3CC3)n2)s1 [Compound I-33]
< 100 nM | Cc1nc(C)c(-c2csc(NC(=O)C(C)c3ccc(Cl)cc3)n2)s1 (centres unmarked) [Compound I-4]
< 100 nM | Cc1nc(CF)sc1-c1csc(NC(=O)Cc2ccc(S(=O)(=O)C(F)(F)F)cc2)n1 [Compound I-31]
< 100 nM | Cc1ncc(-c2csc(NC(=O)Cc3ccc(Br)cc3)n2)s1 [Compound I-14]
100 to 1000 nM | Cc1nc(C)c(-c2csc(NC(=O)C3CC(=O)N(Cc4ccccc4)C3)n2)s1 (centres unmarked) [Compound I-47]
< 100 nM | Cc1nc(C)c(-c2csc(NC(=O)Cc3ccc(C(F)(F)F)c(F)c3)n2)s1 [Compound I-20]
